Measured values reported in US20060155119A1, “Ascomycin crystalline forms and preparation thereof” (priority 2004, published 2006).

Assay: Storing crystalline Ascomycin Form A at 150° C. for 1 hour, solid form checked by PXRD/DSC
Type: physicochemical
Conditions: solid sample, initial PXRD form A, remark wraps over r7-r8: 'Remained crystalline'
Description: The crystalline forms of ascomycin, produced by the methods of the present invention can be analyzed by Powder X-ray diffraction (PXRD) was performed on an X-Ray powder diffractometer, ARL, θ-θ goniometer, Cu-tube, solid state detector with Peltier cooling. The sample holder was a round standard aluminum sample holder with round zero background. Scanning parameters: Range: 2-40 deg.2θ, Continuous Scan, Rate: 3 deg./min.
Ascomycin crystalline forms can also be analyzed by thermal analysis, which can be carried out by […] scanning calorimetry (DSC) and by thermogravimetric analysis (TGA). DSC thermograms can be obtained on a DSC822^e Mettler Toledo instrument (Advanced Instruments, San Juan, Puerto Rico). Sample weight: 3-5 mg; Heating rate: 10° C./min; Number of holes in the crucible: 3. TGA thermograms can be obtained on a Mettler TGA/SDTA 851 instrument (Advanced Instruments, San Juan, Puerto Rico) using a standard Allumina pan. Sample weight: 7-15 mg; Heating rate: 10° C./min.
Starting from Form A having the properties listed in Table 1, incubation at 150° C. for 1 hour produced Ascomycin Form C.

For `CC[C@@H]1/C=C(\C)C[C@H](C)C[C@H](OC)[C@H]2O[C@@](O)(C(=O)C(=O)N3CCCC[C@H]3C(=O)O[C@H](/C(C)=C/[C@@H]3CC[C@@H](O)[C@H](OC)C3)[C@H](C)[C@@H](O)CC1=O)[C@H](C)C[C@@H]2OC` [Form A, Ascomycin], the “remarks after storing at 150° C. for 1 hour” value was “Remained”.
